Experimental findings from patent US10376520B2, “Methods for the treatment of cardiovascular disorders” (Galapagos NV, priority 2015, dated 2019) are described below.

The test relates to RA patients. As to the kind of experiment: LDL determination, Study 4 (RA patients, 4 weeks, add-on to MTX). In kind it is in vivo, human. The following applies: for [LDL] levels: Study 4. The text has this:
Randomized, double-blind, placebo-controlled, multicenter, phase II study of Compound 1 (dosed as a [Compound 1:HCl:3H2O]) to compare four dose regimens versus placebo, in combination with methotrexate, administered for 4 weeks in the treatment of subjects with active rheumatoid arthritis who have an inadequate response to methotrexate alone.
Randomized double-blind, placebo-controlled add on study in subjects with active RA who have an inadequate response to MTX monotherapy, in combination with methotrexate, administered for 4 weeks in the treatment of subjects with active rheumatoid arthritis who have an inadequate response to methotrexate alone.
90 subjects randomized to one of 4 dose regimens of Compound 1 (dosed as a [Compound 1:HCl:3H2O]) or placebo, on top of their stable dose of MTX. Thus, each of the 4 different doses of Compound 1 (dosed as a [Compound 1:HCl:3H2O]) and placebo groups has 18 subjects.
Compound 1 (dosed as a [Compound 1:HCl:3H2O]) capsules administered orally in 30 mg, 75 mg, 150 mg, or 300 mg doses per day for 4 weeks.
The determination of [LDL]-cholesterol is made using an automated method taking advantage of the selective micellary solubilization of [LDL]-cholesterol by a nonionic detergent and the interaction of a sugar compound and lipoproteins (VLDL and chylomicrons).
When a detergent is included in the enzymatic method for cholesterol determination (cholesterol esterase, cholesterol oxidase coupling reaction), the relative reactivities of cholesterol in the lipoprotein fractions increase in this order: [HDL]<chylomicrons <VLDL <[LDL]. In the presence of Mg^2+, a sugar compound markedly reduces the enzymatic reaction of the cholesterol measurement in VLDL and chylomicrons. The combination of a sugar compound with detergent enables the selective determination of [LDL]-cholesterol in serum. (Friedewald et al., 1972; Rifai et al., 1992)
Homogeneous enzymatic colorimetric assay.
In the presence of peroxidase, the hydrogen peroxide generated reacts with 4-aminoantipyrine and Sodium N-(2-hydroxy-3-sulfopropyl)-3,5-dimethoxyaniline (HSDA) to form a purple-blue dye.
The color intensity of this dye is directly proportional to the cholesterol concentration and is measured photometrically.
Human serum and plasma samples [LDL] determination was done on a Roche/Hitachi Cobas c 701/702 system which automatically calculate the analyte concentration of each sample. Samples containing precipitates are centrifuged before performing the assay.

On to `O=C(Nc1nc2cccc(-c3ccc(CN4CCS(=O)(=O)CC4)cc3)n2n1)C1CC1` [Compound 1, cyclopropanecarboxylic acid {5-[4-(1,1-dioxo-thiomorpholin-4-ylmethyl)-phenyl]-[1,2,4]triazolo[1,5-a]pyridin-2yl}-amide], for which the “[LDL] % Mean % variation vs baseline after 4 weeks” value was 7% (30 mg qd), 7% (75 mg qd), 1% (150 mg qd) and 13% (300 mg qd). Further, the “[LDL] levels” value runs as follows: (30 mg q.d., baseline) 3.34 mmol/L; (30 mg q.d., week 1) 3.40 mmol/L; (30 mg q.d., week 2) 3.35 mmol/L; (30 mg q.d., week 3) 3.41 mmol/L; (30 mg q.d., week 4) 3.60 mmol/L; (75 mg q.d., baseline) 3.22 mmol/L. Moreover, the “[LDL] levels” value is on record as 3.25 mmol/L (75 mg q.d., week 1); 3.17 mmol/L (75 mg q.d., week 2); 3.14 mmol/L (75 mg q.d., week 3); 3.36 mmol/L (75 mg q.d., week 4); 3.01 mmol/L (150 mg q.d., baseline); 3.18 mmol/L (150 mg q.d., week 1). The “[LDL] levels” value runs as follows: (150 mg q.d., week 2) 2.95 mmol/L; (150 mg q.d., week 3) 2.96 mmol/L; (150 mg q.d., week 4) 3.06 mmol/L; (300 mg q.d., baseline) 2.82 mmol/L; (300 mg q.d., week 1) 3.19 mmol/L; (300 mg q.d., week 2) 3.11 mmol/L. The “[LDL] levels” value runs as follows: (300 mg q.d., week 3) 3.18 mmol/L; (300 mg q.d., week 4) 3.18 mmol/L.
